The record followed here is patent publication US9029405B2, “5-(biphenyl-4-yl)-3-phenyl-1,2,4-oxadiazolyl derivatives as ligands on the sphingosine 1-phosphate(SIP)receptors” (Merck Serono S.A., priority 2010, dated 2015).

Assay [1] has as its target T1, S1P1 (Homo sapiens, UniProt P21453). As to the kind of experiment: S1P1 internalization assay in S1P1-U2OS cells (cell imaging). Conditions: U2OS cells expressing S1P1-EGFP, 384-well format. It is filed as cell-based. On the set-up: host or cells: U2OS (human bone osteosarcoma epithelial cells). A digest of the protocol:
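U2OS cells stably expressing human S1P1-EGFP, serum-starved 2 h in medium with 0.1% fatty-acid-free BSA, then compound 1 h at 37° C. After fixation and Hoechst nuclear stain, receptor internalization imaged as EGFP spot count per nucleus.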
Target sequence in this assay (P21453 whole entry): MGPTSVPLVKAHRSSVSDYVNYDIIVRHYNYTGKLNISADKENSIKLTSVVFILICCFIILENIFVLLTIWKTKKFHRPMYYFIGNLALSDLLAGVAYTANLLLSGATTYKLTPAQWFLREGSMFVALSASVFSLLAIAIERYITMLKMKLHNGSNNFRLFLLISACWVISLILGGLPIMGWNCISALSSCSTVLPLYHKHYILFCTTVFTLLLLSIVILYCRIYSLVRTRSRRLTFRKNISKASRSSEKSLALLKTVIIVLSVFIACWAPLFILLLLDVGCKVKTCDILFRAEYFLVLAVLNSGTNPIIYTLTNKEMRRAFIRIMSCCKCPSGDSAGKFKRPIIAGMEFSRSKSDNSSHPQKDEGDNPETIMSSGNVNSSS

In assay [2] the target is T1, S1P1. In words: Receptor binding assay, [33P]sphingosine 1-phosphate competition, membranes of CHO cells expressing S1P1. The method in brief:
(§1)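 SPA competition on CHO membranes with [33P]S1P at 30 pM (S1P1) or 15 pM (S1P3), in 50 mM HEPES pH 7.5, 5 mM MgCl2, 100 mM NaCl, 0.4% fatty acid-free BSA, 60 min at RT. Non-specific binding defined by 1000-fold unlabeled S1P; Ki values reported.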
Target sequence in this assay (P21453 whole entry, species assumed): as the sequence (P21453 whole entry) above

Another assay deals with S1P3 (Homo sapiens, UniProt Q99500). In words: Receptor binding assay, [33P]sphingosine 1-phosphate competition, membranes of CHO cells expressing S1P3. A digest of the protocol:
as §1

Setting [3] is: 96 well plate, read-out: S1P1 Binding Ki [M] (96 well plate).
[4] abbreviates: 384 well plate, read-out: S1P1 Binding Ki [M] (384 well plate).
[5] abbreviates: 96 well plate, read-out: S1P3 Binding Ki [M] (96 well plate).
Where [6] appears, read: 384 well plate, read-out: S1P3 Binding Ki [M] (384 well plate).

Structures are written as SMILES. Counter-ions that a name gives are not always drawn. Like-named read-outs stand apart in the source and are kept apart here. Bounds are passed on as bounds.

Chain of S1P3 (Q99500 whole entry, species assumed): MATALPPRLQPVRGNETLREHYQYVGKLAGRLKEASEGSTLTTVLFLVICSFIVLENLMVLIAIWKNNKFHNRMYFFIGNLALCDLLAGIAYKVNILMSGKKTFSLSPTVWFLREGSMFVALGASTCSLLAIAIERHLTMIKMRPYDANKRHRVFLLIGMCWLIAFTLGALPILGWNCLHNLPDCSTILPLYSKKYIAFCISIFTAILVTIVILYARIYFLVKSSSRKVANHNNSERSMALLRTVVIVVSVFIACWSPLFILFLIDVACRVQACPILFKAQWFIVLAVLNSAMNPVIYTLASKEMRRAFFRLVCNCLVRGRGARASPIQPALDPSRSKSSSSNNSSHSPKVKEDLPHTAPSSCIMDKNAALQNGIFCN

As a reminder, the EC50 is the concentration at which the effect is half-maximal. By Ki is commonly meant the dissociation constant of the complex between target and ligand, obtained from inhibition or displacement. Regarding `Cc1ccccc1-c1ccc(-c2nc(-c3ccc([C@@H](C)NCC(=O)O)cc3)no2)cc1C(F)(F)F` [Example 22, N-[(1R)-1-(4-{5-[2′-methyl-2-(trifluoromethyl)biphenyl-4-yl]-1,2,4-oxadiazol-3-yl}phenyl)ethyl]glycine, hydrochloride salt], at S1P1 [1], the EC50 was 6.51 nM. The Ki was determined as 4.14e-10 M on S1P1 [2] (setting [3]), 1.72e-09 M on S1P1 [2] (setting [4]), 5.98e-07 M on S1P3 (setting [5]) and 4.7e-07 M on S1P3 (setting [6]).
For `Cc1cc(-c2nc(-c3ccc(C(C)NCC(=O)O)cc3)no2)ccc1-c1ccccc1C(F)(F)F` (stereo not shown) [Example 23, N-[1-(4-{5-[2-methyl-2′-(trifluoromethyl)biphenyl-4-yl]-1,2,4-oxadiazol-3-yl}phenyl)ethyl]glycine, hydrochloride salt], at S1P1 [1], the response was half-maximal at 21.3 nM (EC50). Besides, the Ki at S1P1 [2] (setting [4]) stood at 1.71e-09 M; on S1P3 (setting [6]), 7.05e-06 M.
On to `Cc1ccccc1-c1ccc(-c2nc(-c3cccc(C(C)N(C)[C@@H](C)C(=O)O)c3)no2)cc1C(F)(F)F` (stereo partly shown) [Example 29, N-methyl-N-[1-(3-{5-[2′-methyl-2-(trifluoromethyl)biphenyl-4-yl]-1,2,4-oxadiazol-3-yl}phenyl)ethyl]alanine, hydrochloride salt], for which the response at S1P1 [1] was half-maximal at 46 nM (EC50). The figures for the Ki at S1P1 [2] (setting [4]) and on S1P3 (setting [6]) were 5.95e-10 M and 5.84e-08 M, respectively.
Take `Cc1ccccc1-c1ccc(-c2nc(-c3ccc(C(C)NCC(=O)O)cc3)no2)cc1C(F)(F)F` (stereo not shown) [Example 32, N-[1-(4-{5-[2′-methyl-2-(trifluoromethyl)biphenyl-4-yl]-1,2,4-oxadiazol-3-yl}phenyl)ethyl]glycine, hydrochloride salt]: the concentration giving a half-maximal response (EC50) on S1P1 [1] was found to be 7.58 nM. Also, the Ki at S1P1 [2] (setting [4]) worked out at 1.69e-09 M; on S1P3 (setting [6]), 4.33e-07 M.
As to `Cc1ccccc1-c1ccc(-c2nc(-c3ccc([C@H](C)N(C)CC(=O)O)cc3)no2)cc1C(F)(F)F` [Example 34, N-methyl-N-[(1S)-1-(4-{5-[2′-methyl-2-(trifluoromethyl)biphenyl-4-yl]-1,2,4-oxadiazol-3-yl}phenyl)ethyl]glycine, hydrochloride salt], at S1P1 [1], the EC50 came out at 26.3 nM. Further, the Ki at S1P1 [2] (setting [4]) amounted to 4.47e-09 M; at S1P3 (setting [6]) it was 6e-06 M.
The like results for `Cc1ccccc1-c1ccc(-c2nc(-c3ccc([C@@H](C)N(C)CC(=O)O)cc3)no2)cc1C(F)(F)F` [Example 36, N-methyl-N-[(1R)-1-(4-{5-[2′-methyl-2-(trifluoromethyl)biphenyl-4-yl]-1,2,4-oxadiazol-3-yl}phenyl)ethyl]glycine, hydrochloride salt] were, in that order, 33.6 nM, 2.55e-09 M and 7.93e-07 M.
Taken in the same sequence, the figures for `COCc1cc(-c2nc(-c3ccc(C(C)N(C)[C@@H](C)C(=O)O)cc3)no2)ccc1-c1ccccc1C` (stereo partly shown) [Example 37, N-[1-(4-{5-[2-(methoxymethyl)-2′-methylbiphenyl-4-yl]-1,2,4-oxadiazol-3-yl}phenyl)ethyl]-N-methylalanine] were 15.1 nM, 1.44e-09 M and 3.4e-06 M.
As for `Cc1cc(-c2nc(-c3cccc(C(C)NCC(=O)O)c3)no2)ccc1-c1ccccc1C(F)(F)F` (stereo not shown) [Example 38, N-[1-(3-{5-[2-methyl-2′-(trifluoromethyl)biphenyl-4-yl]-1,2,4-oxadiazol-3-yl}phenyl)ethyl]glycine, hydrochloride salt], it took 77.9 nM to reach a half-maximal effect at S1P1 [1] (EC50). Moreover, the Ki on S1P1 [2] (setting [4]) stood at 2.84e-09 M; at S1P3 (setting [6]), 1.43e-06 M.
The like results for `Cc1ccccc1-c1ccc(-c2nc(-c3ccc(C(C)N(C)[C@@H](C)C(=O)O)cc3)no2)cc1C(F)(F)F` (stereo partly shown) [Example 39, N-methyl-N-[1-(4-{5-[2′-methyl-2-(trifluoromethyl)biphenyl-4-yl]-1,2,4-oxadiazol-3-yl}phenyl)ethyl]alanine] were, in that order, 20.9 nM, 4.34e-09 M and 3.18e-06 M.
The like results for `Cc1ccccc1-c1ccc(-c2nc(-c3ccc(C(C)N(C)CC(=O)O)cc3)no2)cc1C(F)(F)F` (stereo not shown) [Example 40, N-methyl-N-[1-(4-{5-[2′-methyl-2-(trifluoromethyl)biphenyl-4-yl]-1,2,4-oxadiazol-3-yl}phenyl)ethyl]glycine, hydrochloride salt] were, in that order, 17.8 nM, 2.17e-09 M and 5.32e-07 M.
At S1P1 [1], `CCC(NCc1ccc(-c2noc(-c3ccc(-c4ccccc4C)c(C(F)(F)F)c3)n2)cc1F)C(=O)O` (stereo not shown) [Example 41, 2-[(2-fluoro-4-{5-[2′-methyl-2-(trifluoromethyl)biphenyl-4-yl]-1,2,4-oxadiazol-3-yl}benzyl)amino]butanoic acid, hydrochloride salt] registered an EC50 of 12.8 nM. The inhibitory constant (Ki) worked out at 4.88e-09 M on S1P1 [2] (setting [4]) and 8.72e-06 M on S1P3 (setting [6]).
Consider `Cc1ccccc1-c1ccc(-c2nc(-c3cccc(C(C)NCC(=O)O)c3)no2)cc1C(F)(F)F` (stereo not shown) [Example 42, N-[1-(3-{5-[2′-methyl-2-(trifluoromethyl)biphenyl-4-yl]-1,2,4-oxadiazol-3-yl}phenyl)ethyl]glycine, hydrochloride salt], for which the response at S1P1 [1] was half-maximal at 7.17 nM (EC50). Further, the inhibitory constant (Ki) on S1P1 [2] (setting [4]) was found to be 1.02e-09 M; at S1P3 (setting [6]) it was 1.06e-07 M.
As to `COCc1cc(-c2nc(-c3ccc(CN(C)C(C)(C)C(=O)O)c(F)c3)no2)ccc1-c1ccccc1C` [Example 43, N-(2-fluoro-4-{5-[2-(methoxymethyl)-2′-methylbiphenyl-4-yl]-1,2,4-oxadiazol-3-yl}benzyl)-N,2-dimethylalanine, hydrochloride salt], a half-maximal response at S1P1 [1] (EC50) required 24.1 nM. In addition, the inhibition constant (Ki) at S1P1 [2] (setting [3]) was 6.3e-10 M; on S1P1 [2] (setting [4]), 2.32e-09 M; at S1P3 (setting [5]), 3.15e-06 M; on S1P3 (setting [6]), 8.4e-07 M.
`COCc1cc(-c2nc(-c3ccc(CN(C)[C@@H](C)C(=O)O)c(F)c3)no2)ccc1-c1ccccc1C` [Example 44, N-(2-fluoro-4-{5-[2-(methoxymethyl)-2′-methylbiphenyl-4-yl]-1,2,4-oxadiazol-3-yl}benzyl)-N-methylalanine, hydrochloride salt] returned an EC50 on S1P1 [1] of 6.29 nM. Also, the inhibitory constant (Ki) at S1P1 [2] (setting [4]) came out at 1.58e-09 M; on S1P3 (setting [6]), 8.69e-07 M.
The like results for `Cc1ccccc1-c1ccc(-c2nc(-c3ccc(CN(C)[C@@H](CO)C(=O)O)c(F)c3)no2)cc1C(F)(F)F` [Example 45, N-(2-fluoro-4-{5-[2′-methyl-2-(trifluoromethyl)biphenyl-4-yl]-1,2,4-oxadiazol-3-yl}benzyl)-N-methylserine, hydrochloride salt] were, in that order, 30.8 nM, 2.68e-09 M and 4.36e-07 M.
The like results for `Cc1ccccc1-c1ccc(-c2nc(-c3cc(F)cc(CNC(C)(C)C(=O)O)c3)no2)cc1C(F)(F)F` [Example 46, N-(3-fluoro-5-{5-[2′-methyl-2-(trifluoromethyl)biphenyl-4-yl]-1,2,4-oxadiazol-3-yl}benzyl)-2-methylalanine, hydrochloride salt] were, in that order, 9.34 nM, 7.94e-10 M and 9.55e-08 M.
Taken in the same sequence, the figures for `Cc1ccccc1-c1ccc(-c2nc(-c3ccc(CN[C@H](C(=O)O)C(C)C)c(F)c3)no2)cc1C(F)(F)F` [Example 47, N-(2-fluoro-4-{5-[2′-methyl-2-(trifluoromethyl)biphenyl-4-yl]-1,2,4-oxadiazol-3-yl}benzyl)valine, hydrochloride salt] were 39.1 nM, 4.26e-09 M and 1.95e-05 M.
`Cc1cc(-c2nc(-c3ccc(CNC(C)(C)C(=O)O)c(F)c3)no2)ccc1-c1ccccc1C(F)(F)F` [Example 48, N-(2-fluoro-4-{5-[2-methyl-2′-(trifluoromethyl)biphenyl-4-yl]-1,2,4-oxadiazol-3-yl}benzyl)-2-methylalanine, hydrochloride salt] returned an EC50 on S1P1 [1] of 23.8 nM. Moreover, the Ki at S1P1 [2] (setting [4]) was 4.68e-09 M; at S1P3 (setting [6]), > 2e-05 M.
For `Cc1ccccc1-c1ccc(-c2nc(-c3ccc(CNC(C)(C)C(=O)O)c(F)c3)no2)cc1C(F)(F)F` [Example 49, N-(2-fluoro-4-{5-[2′-methyl-2-(trifluoromethyl)biphenyl-4-yl]-1,2,4-oxadiazol-3-yl}benzyl)-2-methylalanine, hydrochloride salt], a half-maximal response at S1P1 [1] (EC50) required 13.8 nM. The Ki at S1P1 [2] (setting [4]) came to 1.06e-09 M; at S1P3 (setting [6]), 9.71e-07 M.
The like results for `Cc1ccccc1-c1ccc(-c2nc(-c3ccc(CN(C)[C@@H](C)C(=O)O)c(F)c3)no2)cc1C(F)(F)F` [Example 50, N-(2-fluoro-4-{5-[2′-methyl-2-(trifluoromethyl)biphenyl-4-yl]-1,2,4-oxadiazol-3-yl}benzyl)-N-methylalanine, hydrochloride salt] were, in that order, 25.8 nM, 3.02e-09 M and 6.61e-07 M.
Taken in the same sequence, the figures for `Cc1ccccc1-c1ccc(-c2nc(-c3ccc(C(CO)NCC(=O)O)cc3)no2)cc1C(F)(F)F` (stereo not shown) [Example 52, 2-(2-Hydroxy-1-(4-(5-(2′-methyl-2-(trifluoromethyl)biphenyl-4-yl)-1,2,4-oxadiazol-3-yl)phenyl)ethylamino)acetic acid] were 10.2 nM, 3.76e-09 M and 1.08e-06 M.
Taken in the same sequence, the figures for `COCc1cc(-c2nc(-c3ccc(CN(C)C4(C(=O)O)CCCC4)cc3)no2)ccc1-c1ccccc1C` [Example 53, 1-((4-(5-(2-(methoxymethyl)-2′-methylbiphenyl-4-yl)-1,2,4-oxadiazol-3-yl)benzyl)(methyl)amino)cyclopentanecarboxylic acid] were 42.2 nM, 3.97e-09 M and 3.64e-06 M.
